Test results reported in patent publication US10821152B2, “Methods, agents and compositions for treatment of inflammatory conditions” (Betanien Hospital, priority 2014, dated 2020).
Non-standard residues stand in square brackets, D forms with d. Residues, ends and D or L forms follow the SMILES beside them. d(hArg(Et2)) = CCN=C(NCC)NCCCC[C@@H](N)C(=O)O; hArg(Et2) = CCN=C(NCC)NCCCC[C@H](N)C(=O)O; dPhe(4-Cl) = N[C@H](Cc1ccc(Cl)cc1)C(=O)O; d2Nal = N[C@H](Cc1ccc2ccccc2c1)C(=O)O; d3Pal = N[C@H](Cc1cccnc1)C(=O)O

Legend:
Type in all cases: in vivo, human
[1] = system: patient with seropositive rheumatoid arthritis; assay: Treatment of RA using Ganirelix
Protocol: • person with seropositive rheumatoid arthritis with disease duration of 10 years. • Fulfilled ACR 2010 classification criteria for rheumatoid arthritis. Experimental Treatment • Had tried almost all available rheumatoid arthritis therapies available previously without effect. • Offered experimental GnRH antagonist therapy, Ganirelix 0.75 mg sc daily (0.25 mg sc three times a day) Assessment of Response at 4 Months • Disease activity score (DAS) reduction from 5.5 to 2.2 (remission). • A DAS reduction of 0.6 units is defined as a clinical response to treatment (1). • Their ESR decreased from 28 mm to 19 mm, with a normalization of their CRP from 23 mg/L to 5 mg/L. This is supported by the decrease in their anti-cyclic citrullinated peptide (CCP) antibodies from 27 u/mL. to 14 u/mL.

[2] = system: patient with ulcerative colitis; assay: GnRH antagonist treatment for colitis (Ganirelix)
Protocol: • person with ulcerative colitis for the past 10 years Experimental Treatment • Is offered Ganirelix 2 mg daily for 6months Assessment of Response • By 6 months they experience clinical remission with a partial Mayo score reduction from 3 to 0.

[3] = system: patient with tendonitis of the elbow; assay: GnRH antagonist injection around tendon in tendonitis; settings: 1.5 mg injected around the affected tendon, 2 week post injection
Protocol: • person diagnosed with tendonitis of the elbow with ultrasound confirming tendonitis. Experimental Treatment • Treated with an injection of GnRH antagonist, Ganirelix 1.5 mg, around the affected tendon. Assessment of Response • Before and 2 week post injection ultrasound images are taken to show a decrease in tendonitis of the elbow.

CCN=C(NCC)NCCCC[C@H](NC(=O)[C@H](CC(C)C)NC(=O)[C@@H](CCCCNC(=NCC)NCC)NC(=O)[C@H](Cc1ccc(O)cc1)NC(=O)[C@H](CO)NC(=O)[C@@H](Cc1cccnc1)NC(=O)[C@@H](Cc1ccc(Cl)cc1)NC(=O)[C@@H](Cc1ccc2ccccc2c1)NC(C)=O)C(=O)N1CCC[C@H]1C(=O)N[C@H](C)C(N)=O [Ganirelix] (Ac-[d2Nal][dPhe(4-Cl)][d3Pal]SY[d(hArg(Et2))]L[hArg(Et2)]P[dA]-NH2)
CRP ([1]; at 4 months): 5 mg/L
ESR ([1]; at 4 months): 19 mm
anti-cyclic citrullinated peptide (CCP) antibodies ([1]; at 4 months): 14 u/mL
rheumatoid factor level ([1]; at 4 months): 75 kIU/L
Disease activity score (DAS) ([1]; at 4 months, 0.75 mg sc daily (remission)): 2.2
CRP ([1]; before Ganirelix): 23 mg/L
Disease activity score (DAS) ([1]; before Ganirelix): 5.5
ESR ([1]; before Ganirelix): 28 mm
anti-cyclic citrullinated peptide (CCP) antibodies ([1]; before Ganirelix): 27 u/mL
rheumatoid factor level ([1]; before Ganirelix): 113 kIU/L
partial Mayo score ([2]; Ganirelix 2 mg daily, by 6 months (clinical remission)): 0
partial Mayo score ([2]; before Ganirelix): 3
tendonitis of the elbow on ultrasound [3]: decrease
